Several values for one entry are separate records, joined by “and”; a condition that tells them apart may be missing. Equal values may be shown once.
Tested on: 786-0 complex spheroid viability
Assay: Anticancer human tumor 786-0 cell line growth inhibition;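 also: spheroids exposed to agents for seven days before readout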
Conditions: for viability, T/C: stronger effect = lower value
How it was run: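 Multicellular complex spheroids of tumor cells with human endothelial cells (HUVEC) and mesenchymal stem cells; the LSD1 inhibitor iadademstat was combined with standard-of-care or investigational agents. Top concentration at or near clinical Cmax, half-log dilutions; final DMSO ≤0.25%.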

[1] = curve of first compound, second compound 0.1 µM
[2] = curve of first compound, second compound 0.316 µM
[3] = curve of first compound, second compound 1 µM
[4] = curve of first compound, second compound 3.16 µM
[5] = curve of first compound, second compound 10 µM

Question: With `Cn1ncnc1C1c2n[nH]c(=O)c3cc(F)cc(c23)NC1c1ccc(F)cc1` (configuration not stated) + NC1CC1c1ccc(-c2cccc(O)c2)cc1 as the molecule, how does the IC50 [1] read?
Answer: > 0.1 µM

Question: And the IC50 [2]?
Answer: > 0.1 µM

Question: And the IC50 [3]?
Answer: > 0.1 µM

Question: And the IC50 [4]?
Answer: > 0.1 µM

Question: And the IC50 [5]?
Answer: > 0.1 µM

Question: What about the viability, T/C (second compound 0.1 µM, first compound 0.000316 µM) of the same molecule?
Answer: 95.4%

Question: And the viability, T/C (second compound 0.1 µM, first compound 0.001 µM)?
Answer: 94.4%

Question: And the viability, T/C (second compound 0.1 µM, first compound 0.00316 µM)?
Answer: 95%

Question: What about the viability, T/C (second compound 0.1 µM, first compound 0.01 µM) of the same molecule?
Answer: 91.9%

Question: What about the viability, T/C (second compound 0.1 µM, first compound 0.0316 µM) of the same molecule?
Answer: 92.4%

Question: And the viability, T/C (second compound 0.1 µM, first compound 0.1 µM)?
Answer: 89.3%

Question: And the viability, T/C (second compound 0.316 µM, first compound 0.000316 µM)?
Answer: 102%

Question: And the viability, T/C (second compound 0.316 µM, first compound 0.001 µM)?
Answer: 102%

Question: And the viability, T/C (second compound 0.316 µM, first compound 0.00316 µM)?
Answer: 101%

Question: And the viability, T/C (second compound 0.316 µM, first compound 0.01 µM)?
Answer: 91%

Question: What about the viability, T/C (second compound 0.316 µM, first compound 0.0316 µM) of the same molecule?
Answer: 94.3%

Question: And the viability, T/C (second compound 0.316 µM, first compound 0.1 µM)?
Answer: 95.9%

Question: And the viability, T/C (second compound 1 µM, first compound 0.000316 µM)?
Answer: 93.3%

Question: And the viability, T/C (second compound 1 µM, first compound 0.001 µM)?
Answer: 94.5%

Question: What about the viability, T/C (second compound 1 µM, first compound 0.00316 µM) of the same molecule?
Answer: 90.6%

Question: What about the viability, T/C (second compound 1 µM, first compound 0.01 µM) of the same molecule?
Answer: 86.9%

Question: What about the viability, T/C (second compound 1 µM, first compound 0.0316 µM) of the same molecule?
Answer: 81.5%

Question: What about the viability, T/C (second compound 1 µM, first compound 0.1 µM) of the same molecule?
Answer: 85%

Question: What about the viability, T/C (second compound 3.16 µM, first compound 0.000316 µM) of the same molecule?
Answer: 88.4%

Question: And the viability, T/C (second compound 3.16 µM, first compound 0.001 µM)?
Answer: 92.1%

Question: What about the viability, T/C (second compound 3.16 µM, first compound 0.00316 µM) of the same molecule?
Answer: 90.9%

Question: And the viability, T/C (second compound 3.16 µM, first compound 0.01 µM)?
Answer: 87.8%

Question: And the viability, T/C (second compound 3.16 µM, first compound 0.0316 µM)?
Answer: 85.2%

Question: And the viability, T/C (second compound 3.16 µM, first compound 0.1 µM)?
Answer: 76.4%

Question: What about the viability, T/C (second compound 10 µM, first compound 0.000316 µM) of the same molecule?
Answer: 80.7%

Question: And the viability, T/C (second compound 10 µM, first compound 0.001 µM)?
Answer: 87%

Question: And the viability, T/C (second compound 10 µM, first compound 0.00316 µM)?
Answer: 84.3%

Question: What about the viability, T/C (second compound 10 µM, first compound 0.01 µM) of the same molecule?
Answer: 83.2%

Question: What about the viability, T/C (second compound 10 µM, first compound 0.0316 µM) of the same molecule?
Answer: 79.8%

Question: What about the viability, T/C (second compound 10 µM, first compound 0.1 µM) of the same molecule?
Answer: 74.5%

Question: How did the IC50 [1] turn out when `CCc1c2c(nc3ccc(O)cc13)-c1cc3c(c(=O)n1C2)COC(=O)[C@]3(O)CC` + NC1CCC(NC2CC2c2ccccc2)CC1 was run?
Answer: < 0.000949 µM

Question: And the IC50 [2]?
Answer: < 0.000949 µM

Question: What about the IC50 [3] of the same molecule?
Answer: < 0.000949 µM

Question: And the IC50 [4]?
Answer: < 0.000949 µM

Question: And the IC50 [5]?
Answer: < 0.000949 µM

Question: What about the viability, T/C (second compound 0.1 µM, first compound 0.000949 µM) of the same molecule?
Answer: 5.59%

Question: And the viability, T/C (second compound 0.1 µM, first compound 0.003 µM)?
Answer: 3.78%

Question: And the viability, T/C (second compound 0.1 µM, first compound 0.00949 µM)?
Answer: 4.66%

Question: And the viability, T/C (second compound 0.1 µM, first compound 0.03 µM)?
Answer: 5.87%

Question: And the viability, T/C (second compound 0.1 µM, first compound 0.0949 µM)?
Answer: 7.32%

Question: What about the viability, T/C (second compound 0.1 µM, first compound 0.3 µM) of the same molecule?
Answer: 5.08%

Question: What about the viability, T/C (second compound 0.316 µM, first compound 0.000949 µM) of the same molecule?
Answer: 4.71%

Question: What about the viability, T/C (second compound 0.316 µM, first compound 0.003 µM) of the same molecule?
Answer: 5.02%

Question: And the viability, T/C (second compound 0.316 µM, first compound 0.00949 µM)?
Answer: 5.44%

Question: And the viability, T/C (second compound 0.316 µM, first compound 0.03 µM)?
Answer: 5.35%

Question: What about the viability, T/C (second compound 0.316 µM, first compound 0.0949 µM) of the same molecule?
Answer: 6.11%

Question: And the viability, T/C (second compound 0.316 µM, first compound 0.3 µM)?
Answer: 6.29%

Question: And the viability, T/C (second compound 1 µM, first compound 0.000949 µM)?
Answer: 4.87%

Question: What about the viability, T/C (second compound 1 µM, first compound 0.003 µM) of the same molecule?
Answer: 4.67%

Question: And the viability, T/C (second compound 1 µM, first compound 0.00949 µM)?
Answer: 4.31%

Question: What about the viability, T/C (second compound 1 µM, first compound 0.03 µM) of the same molecule?
Answer: 6.32%

Question: What about the viability, T/C (second compound 1 µM, first compound 0.0949 µM) of the same molecule?
Answer: 7.36%

Question: And the viability, T/C (second compound 1 µM, first compound 0.3 µM)?
Answer: 5.93%

Question: And the viability, T/C (second compound 3.16 µM, first compound 0.000949 µM)?
Answer: 4.72%

Question: And the viability, T/C (second compound 3.16 µM, first compound 0.003 µM)?
Answer: 4.8%

Question: What about the viability, T/C (second compound 3.16 µM, first compound 0.00949 µM) of the same molecule?
Answer: 5.76%

Question: And the viability, T/C (second compound 3.16 µM, first compound 0.03 µM)?
Answer: 6.79%

Question: What about the viability, T/C (second compound 3.16 µM, first compound 0.0949 µM) of the same molecule?
Answer: 7.9%

Question: What about the viability, T/C (second compound 3.16 µM, first compound 0.3 µM) of the same molecule?
Answer: 6.54%

Question: And the viability, T/C (second compound 10 µM, first compound 0.000949 µM)?
Answer: 3.83%

Question: What about the viability, T/C (second compound 10 µM, first compound 0.003 µM) of the same molecule?
Answer: 4.29%

Question: What about the viability, T/C (second compound 10 µM, first compound 0.00949 µM) of the same molecule?
Answer: 6.51%

Question: And the viability, T/C (second compound 10 µM, first compound 0.03 µM)?
Answer: 9.43%

Question: What about the viability, T/C (second compound 10 µM, first compound 0.0949 µM) of the same molecule?
Answer: 10.1%

Question: And the viability, T/C (second compound 10 µM, first compound 0.3 µM)?
Answer: 7.07%

Question: What does the source list for `COc1cc(C2c3cc4c(cc3C(OC3OC5COC(C)OC5C(O)C3O)C3COC(=O)C23)OCO4)cc(OC)c1O` (configuration not stated)?
Answer: viability, T/C (compound 0.00949 µM): 103% and 96%; viability, T/C (compound 0.03 µM): 96.4% and 94.6%; viability, T/C (compound 0.0949 µM): 63.6% and 72.1%; viability, T/C (compound 0.3 µM): 49.5% and 53.4%; viability, T/C (compound 0.949 µM): 23.1% and 38.4%; viability, T/C (compound 3 µM): 11.1% and 21.9%; IC50 (curve of compound): 0.241 µM and 0.396 µM

— PubChem BioAssay AID1918944 (Molecular Pharmacology Branch, DTP, NCI, 2023)
